Usually inhibition stands for the relative decrease from the control value, in per cent. Usually EC50 stands for the midpoint of the concentration-response curve.

Each structure is given as a SMILES string.

This assay has as its system RSV strain A2. Put plainly: RSV antiviral cytoprotection assay in Hep2 cells (96-well and 384-well format, Cell TiterGlo read-out). Type of assay: cell-based, Respiratory Syncytial Virus (RSV). The following applies: for inhibition at 0.5 µM: HEp-2, 0.5 uM; for inhibition at 0.5 µM / inhibition at 1 µM: RSV-induced cytopathic effect in Hep2 cells, calculated from fitted dose response curve, normalized to 0% and 100%; for EC50: Hep2 cells, class symbols; for inhibition at 1 µM: HEp-2, 1 uM.

Setting [1] is: human respiratory syncytial virus.
The mark [2] stands for this setting: human respiratory syncytial virus, HEp-2, RSV-induced cytopathic effects.

On to `Cc1nc(C(=O)N2CCCC[C@H]2c2cc3nc(N4CC[C@H](N)C4)c(C)cn3n2)cs1` [Compound 288], for which, under setting [1], the inhibition at 0.5 µM is 100%. The EC50 under setting [2] fell in the range of 0.1 to 100 nM.
As for `CS(=O)(=O)Nc1ccc(Cl)cc1C(=O)N1CCCC[C@H]1c1cc2nc(N3CC[C@@H](O)C3)cc(N3CCOCC3)n2n1` [Compound 71], the inhibition at 0.5 µM under setting [1] is 95%. For the same molecule, the EC50 under setting [2] was in the range of 0.1 to 100 nM.
As to `CS(=O)(=O)Nc1ccc(Cl)cc1C(=O)N1CCCC[C@H]1c1cc2nc(N3CCC3)cc(CN3CCOCC3)n2n1` [Compound 256], the inhibition at 0.5 µM under setting [1] is 87%. Under setting [2], the EC50 fell in the range of 0.1 to 100 nM.
`Cc1ccccc1C(=O)N1CCCC[C@H]1c1cc2nc(N3CC[C@H](N)C3)c(C)cn2n1` [Compound 158]: the inhibition at 0.5 µM under setting [1] was 100%. Also, under setting [2], the concentration for a half-maximal effect (EC50) was in the range of 0.1 to 100 nM.
For `Cc1ccc(NS(C)(=O)=O)c(C(=O)N2CCCC(C)C2c2cc3[nH]c(C)c(C)c(=O)n3n2)c1` (stereo not drawn) [Compound 30], the EC50 (RSV-induced cytopathic effects) is 101 to 1000 nM. Under setting [1], the inhibition at 0.5 µM was 99%.
Regarding `Cc1cn2nc([C@@H]3CCCCN3C(=O)c3ccc(Cl)cc3Cl)cc2nc1N1CC[C@H](N)C1` [Compound 390], the inhibition at 0.5 µM under setting [1] was 86%. Further, under setting [2], the EC50 fell in the range of 101 to 1000 nM.
Regarding `CN1CCCN(c2cc(N3CCC3)nc3cc([C@@H]4CCCCN4C(=O)c4cc(Cl)ccc4NS(C)(=O)=O)nn23)CC1` [Compound 173], the inhibition at 0.5 µM under setting [1] was 100%. Further, the EC50 under setting [2] lay within 0.1 to 100 nM.
In the case of `CS(=O)(=O)Nc1ccc(Cl)cc1C(=O)N1CCCC[C@H]1c1cc2nc(N3CCC3)cc(N3CCSC3)n2n1` [Compound 106], the inhibition at 0.5 µM under setting [1] is 100%. The concentration for a half-maximal effect (EC50) under setting [2] was in the range of 0.1 to 100 nM.
`CS(=O)(=O)Nc1ccc(Cl)cc1C(=O)N1CCCC[C@H]1c1cc2nc(N3CCC3)cc(N3CC4(COC4)C3)n2n1` [Compound 75]: the inhibition at 0.5 µM under setting [1] was 100%. Moreover, the EC50 under setting [2] was in the range of 0.1 to 100 nM.
Regarding `CS(=O)(=O)Nc1ccc(Cl)cc1C(=O)N1CCCCCC1c1cc2nc(N3CC(N)C3)cc(N3CCOCC3)n2n1` (stereo not drawn) [Compound 178], the inhibition at 0.5 µM under setting [1] was 100%. Also, under setting [2], the EC50 lay in the range of 0.1 to 100 nM.
As to `Cc1cn2nc([C@@H]3CCCCN3C(=O)c3cncs3)cc2nc1N1CC[C@H](N)C1` [Compound 269], the inhibition at 0.5 µM under setting [1] was 90%. Also, the EC50 under setting [2] lay in the range of 0.1 to 100 nM.
On to `CS(=O)(=O)Nc1ccc(Br)cc1C(=O)N1CCCC[C@H]1c1cc2nc(N3CC(O)C3)cc(N3CCOCC3)n2n1` [Compound 80], for which the inhibition at 0.5 µM under setting [1] was 100%. For the same molecule, under setting [2], the EC50 lay within 0.1 to 100 nM.
Consider `CC(=O)Nc1c(C)c(C)nc2cc([C@@H]3CCCCN3C(=O)c3cc(C)ccc3NS(C)(=O)=O)nn12` [Compound 88], for which the inhibition at 0.5 µM under setting [1] was 98%. The EC50 under setting [2] fell in the range of 0.1 to 100 nM.
As for `Cc1cn2nc([C@@H]3CCCCN3C(=O)c3cc(Cl)ccc3NS(C)(=O)=O)cc2nc1N1C[C@@H](N)C2(CC2)C1` [Compound 201], the inhibition at 0.5 µM under setting [1] is 64%. The EC50 under setting [2] lay in the range of 101 to 1000 nM.
Turning to `Cc1cn2nc([C@@H]3CCCCN3C(=O)c3cnc(Cl)cn3)cc2nc1N1CC[C@H](N)C1` [Compound 309], under setting [1], the inhibition at 0.5 µM is 100%. In addition, under setting [2], the EC50 lay within 0.1 to 100 nM.
For the molecule `Cc1cccc(C(=O)N2CCCC[C@H]2c2cc3nc(N4CC[C@H](N)C4)c(C)cn3n2)n1` [Compound 273], the inhibition at 0.5 µM under setting [1] was 100%. Also, the EC50 under setting [2] lay in the range of 0.1 to 100 nM.
Regarding `Cc1cn2nc([C@@H]3CCCCN3C(=O)c3cc(Cl)ccc3NS(C)(=O)=O)cc2nc1N1CCC(c2ccccn2)C1` (stereo partly drawn) [Compound 209], under setting [1], the inhibition at 0.5 µM was 88%. In addition, the EC50 under setting [2] fell in the range of 101 to 1000 nM.
As to `C[C@@H]1CN(c2cc(N3CCC3)nc3cc([C@@H]4CCCCN4C(=O)c4cc(Cl)ccc4NS(C)(=O)=O)nn23)C[C@H](C)N1` [Compound 163], under setting [1], the inhibition at 0.5 µM was 100%. Moreover, the EC50 under setting [2] is 0.1 to 100 nM.
As to `Cc1[nH]c2cc([C@@H]3CCCCN3C(=O)c3ccccc3NS(=O)(=O)N3CCOCC3)nn2c(=O)c1C` [Compound 15], under setting [1], the inhibition at 0.5 µM is 30% and the inhibition at 1 µM was 42%. Under setting [2], the EC50 lay in the range of 101 to 1000 nM.
As for `Cc1ccc(C(=O)N2CCCC[C@H]2c2cc3nc(N4CC[C@H](N)C4)c(C)cn3n2)s1` [Compound 286], under setting [1], the inhibition at 0.5 µM was 100%. Besides, under setting [2], the EC50 was in the range of 0.1 to 100 nM.
Turning to `Cc1cn2nc([C@@H]3CCCCN3C(=O)c3cc(-c4cccs4)n[nH]3)cc2nc1N1CC[C@H](N)C1` [Compound 404], the inhibition at 0.5 µM under setting [1] was 100%. Moreover, the EC50 under setting [2] was 0.1 to 100 nM.
As for `C[C@H]1CC[C@@H](c2cc3nc(N4CC(N)C4)cc(N4CCOCC4)n3n2)N(C(=O)c2cc(Cl)ccc2NS(C)(=O)=O)C1` [Compound 142], the inhibition at 0.5 µM under setting [1] was 100%. Further, the EC50 under setting [2] was 0.1 to 100 nM.
For the molecule `Cc1cn2nc([C@@H]3CCCCN3C(=O)c3cc(Cl)ccc3NS(C)(=O)=O)cc2nc1N1CC[C@@H](N)C1` [Compound 232], under setting [1], the inhibition at 0.5 µM is 100%. Also, the EC50 under setting [2] was in the range of 0.1 to 100 nM.
Taken in the same sequence, the figures for `CCCn1nccc1C(=O)N1CCCC[C@H]1c1cc2nc(N3CC[C@H](N)C3)c(C)cn2n1` [Compound 300] were 99% and 0.1 to 100 nM.
The corresponding values for `Cc1cc(N(C)C)nc2cc([C@@H]3CCCCN3C(=O)c3cc(Cl)ccc3NS(C)(=O)=O)nn12` [Compound 41] are 95% and 0.1 to 100 nM.
For the molecule `CS(=O)(=O)Nc1ccc(Cl)cc1C(=O)N1CCCC[C@H]1c1cc2nc(N3CCC3)cc(N3CC(N)C3)n2n1` [Compound 133], under setting [1], the inhibition at 0.5 µM is 96%. The EC50 under setting [2] lay within 0.1 to 100 nM.
`CS(=O)(=O)Nc1ccc(Cl)cc1C(=O)N1CCCC[C@H]1c1cc2nc(N3CC(F)C3)cc(N3CCOCC3)n2n1` [Compound 72]: under setting [1], the inhibition at 0.5 µM is 98%. Under setting [2], the EC50 was 0.1 to 100 nM.
In the case of `Cc1cn2nc([C@@H]3CCCCN3C(=O)c3nonc3NCCO)cc2nc1N1CC[C@H](N)C1` [Compound 342], under setting [1], the inhibition at 0.5 µM was 79%. In addition, the EC50 under setting [2] was 101 to 1000 nM.
Regarding `CCn1nc(C)cc1C(=O)N1CCCC[C@H]1c1cc2nc(N3CC[C@H](N)C3)c(C)cn2n1` [Compound 302], under setting [1], the inhibition at 0.5 µM was 100%. Also, the EC50 under setting [2] lay in the range of 0.1 to 100 nM.
As to `COc1ccc(NS(C)(=O)=O)c(C(=O)N2CCCC[C@H]2c2cc3[nH]c(C)c(C)c(=O)n3n2)c1` [Compound 10], under setting [1], the inhibition at 0.5 µM was 94% and the inhibition at 1 µM was 99%. The EC50 under setting [2] was 0.1 to 100 nM.
Regarding `C[C@H]1CC[C@@H](c2cc3nc(N4CCC4)cc(N4CCOCC4)n3n2)N(C(=O)c2cc(Cl)ccc2NS(C)(=O)=O)C1` [Compound 143], under setting [1], the inhibition at 0.5 µM was 100%. Also, the EC50 under setting [2] lay within 0.1 to 100 nM.
As to `Cc1cn2nc([C@@H]3CCCCN3C(=O)c3ccc(Cl)c(Cl)c3)cc2nc1N1CC[C@H](N)C1` [Compound 392], under setting [1], the inhibition at 0.5 µM is 95%. Also, the EC50 under setting [2] was in the range of 0.1 to 100 nM.
On to `Cc1cn2nc([C@@H]3Cc4ccccc4CN3C(=O)c3cc(Cl)ccc3NS(C)(=O)=O)cc2nc1N1CC[C@H](N)C1` [Compound 176], for which the inhibition at 0.5 µM under setting [1] is 100%. The EC50 under setting [2] is 0.1 to 100 nM.
Taken in the same sequence, the figures for `CS(=O)(=O)Nc1ccc(Cl)cc1C(=O)N1CCCC[C@H]1c1cc2nc(N3CCC3)cc(N3CCN[C@@H](C(F)F)C3)n2n1` [Compound 253] were 88% and 0.1 to 100 nM.
With `CC(=O)Nc1ccc(C)cc1C(=O)N1CCCC[C@H]1c1cc2nc(N3CC[C@H](N)C3)c(C)cn2n1` [Compound 169], the inhibition at 0.5 µM under setting [1] is 100%. The EC50 under setting [2] was 0.1 to 100 nM.

(Values after US9238039B2, “Pyrazolo[1,5-A]pyrimidines for antiviral treatment” (Gilead Sciences, Inc., priority 2010, dated 2016).)
